# From patent US7557127B2, “HDAC inhibitor” (Astellas Pharma Inc., priority 2004, dated 2009)
# Where a name gives a salt, the structure may show the parent alone.
# Legend:
# [1] = molecular target: T1, human histone deacetylase; experiment: Test 1: Determination of Histone Deacetylase Inhibitor Activity; assay type: biochemical; conditions: enzyme partially purified from human T cell leukemia Jurkat cells; [3H] acetyl-labeled histones; 25° C., 30 minutes; read-out: Test 1: HDAC inhibitory activity IC50
# T1 construct: The human histone deacetylase was partially purified from human T cell leukemia Jurkat cells
# Experimental: Test 1: Determination of Histone Deacetylase Inhibitor Activity
# The partial purification of human histone deacetylase, the preparation of [^3H] acetyl histones, and the assay for histone deacetylase activity were performed basically according to the method as proposed by Yoshida et al. as follows.
# Partial Purification of Human Histone Deacetylase
# The human histone deacetylase was partially purified from human T cell leukemia Jurkat cells. Jurkat cells (5×10^8 cells) were suspended in 40 mL of the HDA buffer consisting of 15 mM potassium phosphate, pH 7.5, 5% glycerol and 0.2 mM EDTA. After homogenization, nuclei were collected by centrifugation (35,000×g, 10 min) and homogenized in 20 mL of the same buffer supplemented with 1 M (NH4)2SO4. The viscous homogenate was sonicated and clarified by centrifugation (35,000×g, 10 min), and the deacetylase was precipitated by raising the concentration of (NH4)2SO4 to 3.5 M. The precipitated protein was dissolved in 10 mL of the HDA buffer and dialyzed against 4 liters of the same buffer. The dialyzate was then loaded onto a DEAE-cellulose (Whatman DE52) column (25×85 mm) equilibrated with the same buffer and eluted with 300 mL of a linear gradient (0-0.6 M) of NaCl. A single peak of histone deacetylase activity appeared between 0.3 and 0.4 M NaCl.
# Preparation of [^3H] Acetyl Histone
# To obtain [^3H] acetyl-labeled histone as the substrate for the histone deacetylase assay, 1×10^8 cells of Jurkat in 20 mL of RPMI-1640 medium (supplemented with 10% FBS, penicillin (50 units/mL) and streptomycin (50 μg/mL)) were incubated with 300 MBq [^3H] sodium acetate in the presence of 5 mM sodium butyrate for 30 minutes in 5% CO2-95% air atmosphere at 37° C. in a 75 cm^2 flask, harvested into a centrifuge tube (50 mL), collected by centrifugation at 1000 rpm for 10 minutes, and washed once with phosphate-buffered saline. The washed cells were suspended in 15 mL of ice-cold lysis buffer (10 mM Tris-HCl, 50 mM sodium bisulfite, 1% Triton X-100, 10 mM MgCl2, 8.6% sucrose, pH 6.5). After Dounce homogenization (30 stroke), the nuclei were collected by centrifugation at 1000 rpm for 10 minutes, washed 3 times with 15 mL of the lysis buffer, and once with 15 mL of ice-cooled washing buffer (10 mM Tris-HCl, 13 mM EDTA, pH 7.4) successively. The pellet was suspended in 6 mL of ice-cooled water using a mixer, and 68 μl of H2SO4 was added to the suspension to give a concentration of 0.4 N. After incubation at 4° C. for 1 hour, the suspension was centrifuged for 5 minutes at 15, 000 rpm, and the supernatant was taken and mixed with 60 mL of acetone. After overnight incubation at −20° C., the coagulated material was collected by microcentrifugation, air-dried, and stored at −80° C.
# Assay for Histone Deacetylase Activity
# For the standard assay, 10 μl of [^3H] acetyl-labeled histones were added to 90 μl of the enzyme fraction, and the mixture was incubated at 25° C. for 30 minutes. The reaction was stopped by addition of 10 μL of HCl. The released [^3H] acetic acid was extracted with 1 mL of ethyl acetate, and 0.9 mL of the solvent layer was taken into 10 mL of toluene scintillation solution for determination of radioactivity.
# [2] = system: splenic cells of Lewis rats; experiment: Test 2: Determination of T-Cell Growth Inhibitor Activity (T lymphocyte blastogenesis test); assay type: cell-based; conditions: Rattus norvegicus, Concanavalin A added, 72 hours, AlamarBlue Assay, read-out: Test 2: T-cell growth inhibitory activity IC50
# Experimental: Test 2: Determination of T-Cell Growth Inhibitor Activity The T lymphocyte blastogenesis test was performed in microtiter plates with each well containing 1.5×10^5 splenic cells of Lewis rats in 0.1 mL RPMI-1640 medium supplemented with 10% fetal bovine serum (FBS), […] 2-mercaptoethanol, penicillin (100 units/mL) and streptomycin (100 μg/mL), to which Concanavalin A (1 μl/mL) was added. The cells were incubated at 37° C. in a humidified atmosphere of 5% CO2 for 72 hours. After the culture period, suppressive activities of the test compounds in T lymphocyte blastogenesis were quantified by AlamarBlue (trademark) Assay. The test samples were dissolved in DMSO and further diluted with RPMI-1640 medium and added to the culture. The activities of the test compounds were expressed as IC50.
SMILES,IC50 [1] [nM],IC50 [2] [nM]
"O=C(/C=C/c1ccc(N[C@@H]2CCN(Cc3ccccc3)C2)nc1)NO [Example 3, (2E)-3-(6-{[(3R)-1-Benzyl-3-pyrrolidinyl]amino}-3-pyridyl)-N-hydroxyacrylamide dihydrochloride]",< 10,< 25
"O=C(/C=C/c1cnc(N[C@@H]2CCCN(Cc3ccccc3)C2)cn1)NO [Example 76, (2E)-3-(5-{[(3R)-1-Benzyl-3-piperidinyl]amino}-2-pyrazinyl)-N-hydroxyacrylamide dihydrochloride]",< 10,< 25
"CC1=C(CN2CC[C@@H](Nc3ccc(/C=C/C(=O)NO)cn3)C2)C(C)(C)CCC1 [Example 189, (2E)-N-hydroxy-3-[6-({(3R)-1-[(2,6,6-trimethyl-1-cyclohexen-1-yl)methyl]-3-pyrrolidinyl}amino)-3-pyridinyl]acrylamide dihydrochloride]",< 10,< 25
"O=C(/C=C/c1cnc(N[C@@H]2CCN(CCc3ccccc3)C2)cn1)NO [Example 119, (2E)-N-hydroxy-3-(5-{[(3R)-1-(2-phenylethyl)-3-pyrrolidinyl]amino}-2-pyrazinyl)acrylamide dihydrochloride]",< 10,< 25

# Continued, in another order:
IC50 [1] [nM],SMILES,IC50 [2] [nM]
< 10,"O=C(/C=C/c1cnc(N[C@@H]2CCN(C(=O)C3CCCCC3)C2)c(Cl)c1)NO [Example 174, (2E)-3-(5-chloro-6-{[(3R)-1-(cyclohexylcarbonyl)-3-pyrrolidinyl]amino}-3-pyridinyl)-N-hydroxyacrylamide hydrochloride]",< 25
< 10,"O=C(/C=C/c1cnc(N[C@@H]2CCN(Cc3ccccc3)C2)cn1)NO [Example 82, (2E)-3-(5-{[(3R)-1-Benzyl-3-pyrrolidinyl]amino}-2-pyrazinyl)-N-hydroxyacrylamide dihydrochloride]",< 25
< 10,"O=C(/C=C/c1ccc(N[C@@H]2CCN(CC3CCCCC3)C2)nc1)NO [Example 60, (2E)-3-(6-{[(3R) 1-(Cyclohexylmethyl)-3-pyrrolidinyl]amino}-3-pyridyl)-N-hydroxyacrylamide dihydrochloride]",< 25
< 10,"O=C(/C=C/c1cnc(N[C@@H]2CCN(Cc3ccc(Cl)cc3)C2)cn1)NO [Example 74, (2E)-3-(5-{[(3R)-1-(4-chlorobenzyl)-3-pyrrolidinyl]amino}-2-pyrazinyl)-N-hydroxyacrylamide dihydrochloride]",< 25
< 10,"O=C(/C=C/c1cnc(N[C@@H]2CCN(Cc3ccc(F)cc3)C2)cn1)NO [Example 116, (2E)-3-(5-{[(3R)-1-(4-fluorobenzyl)-3-pyrrolidinyl]amino}-2-pyrazinyl)-N-hydroxyacrylamide dihydrochloride]",< 25
< 10,"O=C(/C=C/c1cnc(N[C@@H]2CCN(C3CCCCC3)C2)cn1)NO [Example 123, (2E)-3-(5-{[(3R)-1-cyclohexyl-3-pyrrolidinyl]amino}-2-pyrazinyl)-N-hydroxyacrylamide dihydrochloride]",< 25
